Results published in US8785473B2, “Plasminogen activator inhibitor-1 inhibitor” (Renascience Co., Ltd., priority 2009, dated 2014).
Marks after values point to notes of the source that are not given here.

Columns and labels:
[1] = test system: rat model of ferric chloride-induced thrombosis; assay: Test Example 3: antithrombotic effect confirmation test in a rat model of ferric chloride-induced thrombosis; assay type: in vivo; settings: SD rats, 0.3 mg/kg or 1 mg/kg orally 2 hours before operation, compared to the vehicle group (FIG. 1)
Excerpt: The antithrombotic effect of each of compounds (4), (13), (68), and (79) prepared in Examples 4, 13, 68, and 79 (hereinafter referred to as a test compound) was confirmed using a rat model of ferric chloride-induced thrombosis.
Male 9-week-old SD rats (Japan SLC) were used, and divided into a vehicle group and a test compound group (each having n=10). Two hours before the operation for performing a test, in the test compound group, a 0.5% aqueous sodium carboxymethylcellulose (CMC) solution obtained by suspending a test compound in a mortar was added so that the test compound was orally administered in an amount of 0.3 mg/kg or 1 mg/kg. In the vehicle group, a 0.5% CMC aqueous solution that contained no test compound was orally administered. Two hours after oral administration, the rats in each group were anesthetized using […]., and the following operations were performed on a heat pad that had been kept at 38° C.
An incision was made on the cervical skin, and the left carotid artery was exposed in such a manner that the cervical skeletal muscle was not injured. The adhesion tissue was carefully peeled off. Silk thread was placed over the carotid artery, and filter paper was put on the backside of the carotid artery to prevent effusion and facilitate experiment operations. A semicircular tube 5 mm in length (SP 110, inside diameter: 1.5 mm, produced by Natsume Seisakusho Co., Ltd.) was placed on the filter paper, and the blood vessel was placed in the tube. The carotid artery blood flow was measured using a cuff-type Doppler blood flow meter (inside diameter: 1 mm) placed at the periphery side, and recorded on a recorder (Graphtec WR3320) via an amplifier (Nihon Kohden, RMP-6004M). After the carotid artery blood flow was confirmed, filter paper (Whatman, No. 1, 2.5 mm×4.2 mm), to which 2 μL of physiological saline comprising 35% (w/w) ferric chloride was added dropwise, was wrapped around the origin of the carotid artery (the filter paper was positioned so that the length in the blood vessel circumferential direction was 4.2 mm). […]

PAI-1 [2] = biological target: T1, PAI-1 (Homo sapiens, UniProt P05121); assay: biochemical; settings: read-out: PAI-1 activity %
Experimental: The final mixture contained 50 mM Tris-HCl (pH 8), 150 mM NaCl, 1% DMSO, 0.1% PEG-6000, 0.2 mM CHAPS, 5 nMPAI-1, 2 nM t-PA, 0.2 mM Spectrozyme t-PA synthetic substrate, and the compound (10 μM or 2.5 μM).

PAI-1 [3] = biological target: T1, PAI-1; assay: Reference Test Example (1): measurement of PAI-1 inhibitory activity (S-2288), comparison with tiplaxtinin; assay type: biochemical; parameters: purchased Molecular Innovations, Inc. (USA); settings: concentrations of 35 μM and 50 μM (FIG. 2)
Experimental: The final mixture contained 100 mM Tris-HCl (pH 8), 30 mM NaCl, 1% DMSO, 0.1% Tween 80, 67 nM PAI-1, 9.8 nM t-PA, 1 mM S-2288, and test compound a or b (20, 35, or 50 μM).
[…] P-nitroaniline removed from the chromogenic substrate (S-2288) by t-PA action was measured using a spectrophotometer at an absorbance of 405 nm at 5-minute intervals for 30 minutes.
Comparative tests were carried out in the same manner using, in place of the above test compounds, a compound (tiplaxtinin) of the formula below that is used as an antithrombotic drug in US clinical trials (concentration: 20, 35, and 50 μM).
FIGS. 2 (A), (B), and (C) show PAI-1 activity (%) when compound a (concentrations: 20, 35, and 50 μM), compound b (concentrations: 20, 35, and 50 μM), and tiplaxtinin (comparative compound) (concentrations: 20, 35, and 50 μM) were added, respectively. The results reveal that compounds a and b had higher PAI-1 activity inhibitory action at concentrations of 35 μM and 50 μM than tiplaxtinin (comparative compound) (PAI-1 inhibitory activity).

PAI-1 [4] = biological target: T1, PAI-1; assay: Reference Test Example (2): evaluation of fibrinolytic action (fibrin plate, PAI-1 + t-PA); assay type: biochemical; parameters: purchased Molecular Innovations, Inc. (USA); settings: mixture of PAI-1, t-PA and test compound on fibrin plate, 18 hours, lysis area
Experimental: The fibrinolytic action of Compounds a and b were evaluated in accordance with the document (Matsuo, O. et al., Haemostasis, 16, 43-50 (1986)).
Specifically, an aqueous solution (containing 25 mM barbital-sodium, 50 mM NaCl, and 25 mM CaCl2) containing a concentration of 1.5 mg/mL of fibrinogen (produced by Organon Teknica) was added, on a 9 cm-plate, to thrombin dissolved in 0.2 mL of physiological saline (10NIH U/mL: produced by Mochida Pharmaceutical Co., Ltd.), and the mixture was allowed to stand at room temperature for 2 hours. Using this mixture, fibrinolysis assay was conducted.
Namely, a mixture of PAI-1, t-PA, and a test compound was added dropwise to the plate and incubated at room temperature for 18 hours. Then, fibrinolysis due to plasminogen activation was measured from the lysis area on the plate.

[5] = test system: mouse model with pulmonary fibrosis artificially induced by bleomycin; assay: Reference Test Example (3): effects on bleomycin-induced pulmonary fibrosis; assay type: in vivo; settings: bleomycin mice, 200 mg/kg p.o. twice/day for 14 days
Experimental: A C57BL/6 mouse (male, body weight: 19 to 21 g) was intraperitoneally anesthetized with pentobarbital, and an incision was made on the cervical organ. Ten mice were used as controls. Bleomycin (produced by Nippon Kayaku Co., Ltd.) (1.5 U/kg) lysed in physiological saline was endotracheally administered to each of the control mice (n=10) twice a day for 14 days. On the other hand, the test mice were subjected to forcible oral administration of compound b (200 mg/kg), suspended in a 0.5% carboxymethyl cellulose aqueous solution, twice a day for 14 days, in addition to the above endotracheal administration. Then, the lung tissues taken from these control mice and test mice were analyzed, and further assayed for hydroxyproline level. The hydroxyproline level in the lung tissues was measured as the hydrolysate level of the lung tissues, according to the method of Kivirikko et al. (Anal. Biochem. 19, 249-255 (1967)). The level (severity) of pulmonary fibrosis was scored from 0 to 8, based on the method of Ashcort et al. (J. Clin. Pathol. 41, 467-470 (1988)). Further, the control mice and the test mice were assayed for plasma PAI-1 activity (ng/mL).

T1 sequence (P05121 24-402): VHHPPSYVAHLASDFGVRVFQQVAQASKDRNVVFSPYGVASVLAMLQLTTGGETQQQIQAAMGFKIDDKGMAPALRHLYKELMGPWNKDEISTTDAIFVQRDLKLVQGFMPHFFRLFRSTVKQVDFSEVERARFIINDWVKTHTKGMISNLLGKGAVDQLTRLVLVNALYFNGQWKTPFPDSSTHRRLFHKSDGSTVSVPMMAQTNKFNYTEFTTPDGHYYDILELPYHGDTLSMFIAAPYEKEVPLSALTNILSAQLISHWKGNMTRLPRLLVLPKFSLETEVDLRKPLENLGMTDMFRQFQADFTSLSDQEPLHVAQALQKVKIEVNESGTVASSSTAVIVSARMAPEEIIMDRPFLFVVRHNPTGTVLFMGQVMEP

| SMILES | initial occlusion time (antithrombotic effect) [1] | activity at 2.5 µM (PAI-1 [2]) | activity at 10 µM (PAI-1 [2]) | other results |
| --- | --- | --- | --- | --- |
| O=C(Nc1ccc(Cl)cc1C(=O)O)c1cccc(-c2ccccc2)c1 [Example 4, 2-[(biphenyl-3-ylcarbonyl)amino]-5-chlorobenzoic acid] | significantly prolonged | – | – | – |
| O=C(COc1cccc(-c2ccoc2)c1)Nc1ccc(Cl)cc1C(=O)O [Example 13, 5-chloro-2-({[3-(furan-3-yl)phenoxy]acetyl}amino)benzoic acid] | significantly prolonged | – | – | – |
| CC(C(=O)Nc1ccc(Cl)cc1C(=O)O)(c1ccccc1)c1ccccc1 [Example 39, 5-chloro-2-[(2,2-diphenylpropanoyl)amino]benzoic acid] | – | 88.6% | 22.1% | – |
| O=C(COc1cccc(-c2ccccc2)c1)Nc1ccc(-c2ccccc2)cc1C(=O)O [Example 45, 4-{[(biphenyl-3-yloxy)acetyl]amino}biphenyl-3-carboxylic acid] | – | 76.9% | 0.9% | – |
| O=C(COc1ccc(-c2ccccc2)cc1)Nc1ccc(-c2ccoc2)cc1C(=O)O [Example 46, 2-{[(biphenyl-4-yloxy)acetyl]amino}-5-(furan-3-yl)benzoic acid] | – | 69.9% | 0.4% | – |
| O=C(Nc1ccc(Cl)cc1C(=O)O)c1cccc(C2=CCCCC2)c1 [Example 79, 5-chloro-2-({[3-(cyclohex-1-en-1-yl)phenyl]carbonyl}amino)benzoic acid] | significantly prolonged | – | – | – |
| CCC(CC(=O)Nc1scc(-c2ccccc2)c1C(=O)O)C(=O)Nc1scc(-c2ccccc2)c1C(=O)O (stereo not shown) [compound a, 2-[3-(3′-Carboxy-4′-phenylthiophen-2′-ylcarbamoyl)-pentanoylamino]-4-phenylthiophen-3-carboxylic acid] | – | – | – | PAI-1 activity inhibitory action compared with tiplaxtinin (PAI-1 [3]): higher; fibrinolytic action (PAI-1 [4]): inhibit the suppression of fibrinolysis caused by PAI-1 |
| CCC(CC(=O)Nc1scc(-c2cccs2)c1C(=O)O)C(=O)Nc1scc(-c2cccs2)c1C(=O)O (stereo not shown) [compound b, 2-[3-(3′-carboxy-4′-thienylthiophen-2′-ylcarbamoyl)-pentanoylamino]-4-thienylthiophen-3-carboxylic acid] | – | – | – | Hydroxyproline level in the lung tissues ([5]; n=10, mean±SE): 204.2 ± 9.5^b μg/lung; Plasma PAI-1 activity ([5]; n=10, mean±SE): 1.2 ± 0.1^b ng/mL; fibrosis score ([5]; scored from 0 to 8, bleomycin alone 4.7±0.17): 2.9±0.42; PAI-1 activity inhibitory action compared with tiplaxtinin (PAI-1 [3]): higher; fibrinolytic action (PAI-1 [4]): inhibit the suppression of fibrinolysis caused by PAI-1 |
